Experimental data from patent US20030040490A1, “Drugs containing combined active ingredients” (priority 2000, published 2003).

Experiments:
[1] = test system: Sprague-Dawley rats (SD rats); assay: oral sucrose loading test, voglibose and nateglinide (Example 2); format: in vivo, rat; conditions: 2.5 g/kg sucrose load, 0-120 min, average ± standard deviation
Protocol: An effect of the combined use of the α-glucosidase inhibitor (voglibose) and non-sulfonylurea insulin secretagogue (nateglinide) was examined in an oral sucrose loading test using Sprague-Dawley rats (SD rats). SD rats (7-week-old, male) were divided into 6 groups (6 rats per group) to give 1) a control group (distilled water administration), 2) a voglibose 0.1 mg/kg administration group, 3) a nateglinide 10 or 30 mg/kg administration group, and 4) a voglibose 0.1 mg/kg and nateglinide 10 or 30 mg/kg combined administration group. After fasting overnight, every rat was given the above-mentioned drugs by single or combined oral administration, and successively given 2.5 g/kg sucrose solution by oral administration. […] The plasma glucose level was measured by an enzymatic method using an L type Wako Glu2 (Wako Pure Chemical Industries, Ltd.). Increase in the plasma glucose area was calculated by a trapezoid method (Odaka et al., J. Nutr. Sci. Vitaminol., vol. 38, p. 37 (1992) using the plasma glucose level at each time point. The results are shown in Table 1.

[2] = test system: Sprague-Dawley rats (SD rats); assay: oral sucrose loading test, voglibose and repaglinide (Example 3); format: in vivo, rat; conditions: repaglinide 0.05 mg/kg oral, 2.5 g/kg sucrose load, 0-60 min, average ± standard deviation
Protocol: An effect of the combined use of the α-glucosidase inhibitor (voglibose) and the non-sulfonylurea insulin secretagogue (repaglinide) was examined in an oral sucrose loading test using Sprague-Dawley rats (SD rats).
SD rats (10-week-old, male) were divided into 4 groups (6 rats per group) to give 1) a control group (distilled water administration), 2) a repaglinide 0.05 mg/kg administration group, and 3) a voglibose 0.1 mg/kg and repaglinide 0.05 mg/kg combined administration group. After fasting overnight, every rat was given the above-mentioned drugs by single or combined oral administration, and successively given 2.5 g/kg of a sucrose solution by oral administration. The blood was drawn from the rat tail vein before administration of the sucrose solution and 15, 30 and 60 min after the administration, and the plasma glucose level was measured. The plasma glucose level was measured by an enzymatic method using an L type Wako Glu2 (Wako Pure Chemical Industries, Ltd.), and the plasma insulin level was measured by radio immunoassay using Insulotech-Mochida (Mochida Pharmaceutical Co., Ltd.).
Increase in the plasma glucose and plasma insulin areas was calculated by a trapezoid method (Odaka et al., J. Nutr. Sci. Vitaminol., vol. 38, p. 37 (1992)) using the plasma glucose and plasma insulin levels at each time point.

OCC(CO)N[C@H]1C[C@](O)(CO)[C@@H](O)[C@H](O)[C@H]1O [voglibose]
Increase in plasma glucose area ([1]; voglibose 0.1 mg/kg oral): 30 ± 10 mg·h/dL

CCOc1cc(CC(=O)N[C@@H](CC(C)C)c2ccccc2N2CCCCC2)ccc1C(=O)O [repaglinide]
Increase in plasma glucose area [2]: 6 ± 13 mg·h/dL
Increase in plasma insulin area [2]: 432 ± 117 μU · h/ml

CC(C)[C@H]1CC[C@H](C(=O)N[C@H](Cc2ccccc2)C(=O)O)CC1 [nateglinide]
Increase in plasma glucose area ([1]; nateglinide 10 mg/kg oral): 65 ± 28 mg·h/dL
Increase in plasma glucose area ([1]; nateglinide 30 mg/kg oral): 54 ± 15 mg·h/dL
